In US20230212120A1, “SMALL MOLECULE INHIBITORS OF GRK5 AND GRK5 SUBFAMILY MEMBERS AND USES THEREOF” (The Regents of the University of Michigan, priority 2020, published 2023):
≈ marks a conversion by molar mass, not a printed value. Where “and” joins values, the source holds several entries; their conditions need not be identical. Equal entries are not always repeated. Where two headings read alike, the source gives them in different places.

Assays:
bovine GRK2 = biological target: T1, bovine GRK2 (Bos taurus, UniProt P21146); test: radiometric GRK2 inhibition assay (tubulin phosphorylation)
T1 sequence (P21146 1-689): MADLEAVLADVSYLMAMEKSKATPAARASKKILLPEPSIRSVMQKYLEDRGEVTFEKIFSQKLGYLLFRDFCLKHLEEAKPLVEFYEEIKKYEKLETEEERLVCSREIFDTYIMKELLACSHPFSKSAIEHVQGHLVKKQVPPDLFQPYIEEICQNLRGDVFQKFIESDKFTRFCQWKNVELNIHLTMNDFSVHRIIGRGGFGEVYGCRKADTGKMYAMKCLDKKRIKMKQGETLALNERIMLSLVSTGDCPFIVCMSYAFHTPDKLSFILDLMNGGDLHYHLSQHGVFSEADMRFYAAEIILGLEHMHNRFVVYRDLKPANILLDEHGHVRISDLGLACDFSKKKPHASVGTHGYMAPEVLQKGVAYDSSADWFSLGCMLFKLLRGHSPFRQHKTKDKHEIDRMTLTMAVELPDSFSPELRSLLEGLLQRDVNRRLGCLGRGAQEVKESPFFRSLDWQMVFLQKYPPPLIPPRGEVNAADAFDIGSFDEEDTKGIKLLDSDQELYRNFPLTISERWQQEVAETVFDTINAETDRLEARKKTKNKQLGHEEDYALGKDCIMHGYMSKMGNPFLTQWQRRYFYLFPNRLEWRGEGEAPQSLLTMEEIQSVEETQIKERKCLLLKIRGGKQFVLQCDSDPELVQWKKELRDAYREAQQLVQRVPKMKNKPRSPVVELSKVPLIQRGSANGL

[1] = Thermodynamic solubility (Analiza Inc.); type: physicochemical; conditions: for pH After Assay / solubility thermodynamic: Water; for pH After Assay: solubility assay; for solubility thermodynamic: n=1
From the text: Experimental data collected by Analiza Inc. Experimental values represent an average of n=1 experiments.

PKA = PKA (Homo sapiens, UniProt P17612); test: PKA inhibition assay (ADP-Glo); type: biochemical
Procedure: The PKA inhibition assays were performed with the ADP-Glo system (Promega Corporation) according to the manufactory's instruction. […] After the initial reaction, ADP-Glo reagent was added to the reaction and allowed to incubate for an additional 40 min. Lastly, the kinase detection reagent was added and allowed to incubate for 30 min, and the luminescence was measured with a FlexStation 3 Multi-mode Microplate Reader (Molecular Devices). All data was analyzed in the same way as GRK inhibition assay. Experiments were performed three times in duplicate.
Standard control compounds are run during each assay to assess consistency across time, experimenters, and subtle changes in assay conditions that are sometimes required to keep some of the compounds soluble and disperse (such as through addition of DDM or 3% DMSO). Paroxetine were used as controls for GRK2 and PKA, and CCG215022 for GRK5.

GRK5 = GRK5 (Homo sapiens, UniProt P34947); test: radiometric GRK5 inhibition assay (tubulin phosphorylation)
Sequence of GRK5 (P34947 whole entry): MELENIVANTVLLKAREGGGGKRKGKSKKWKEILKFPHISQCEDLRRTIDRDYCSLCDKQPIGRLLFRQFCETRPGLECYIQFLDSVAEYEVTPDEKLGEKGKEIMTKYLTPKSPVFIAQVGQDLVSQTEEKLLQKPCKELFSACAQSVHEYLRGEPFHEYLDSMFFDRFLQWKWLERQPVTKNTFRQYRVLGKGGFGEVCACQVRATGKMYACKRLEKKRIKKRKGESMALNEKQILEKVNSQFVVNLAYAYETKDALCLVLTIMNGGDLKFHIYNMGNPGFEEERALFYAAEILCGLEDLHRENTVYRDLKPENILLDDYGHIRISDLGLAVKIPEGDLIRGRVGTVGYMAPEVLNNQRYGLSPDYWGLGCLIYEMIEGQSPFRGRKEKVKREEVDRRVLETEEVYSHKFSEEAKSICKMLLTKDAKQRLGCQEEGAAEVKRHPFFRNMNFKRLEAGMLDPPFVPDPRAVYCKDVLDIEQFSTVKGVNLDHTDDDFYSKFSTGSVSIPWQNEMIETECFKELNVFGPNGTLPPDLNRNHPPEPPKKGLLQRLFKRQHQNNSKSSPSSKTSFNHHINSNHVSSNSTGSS

[2] = read-out: GRK2 IC50, Table 2, μM ± SD
[3] = read-out: GRK2 IC50, Table 1, μM ± SD

Cc1[nH]c(/C=C2\C(=O)Nc3ccc(C(=O)N[C@H](C)c4ccc(F)cc4)cc32)c(C)c1NC(=O)CBr [Compound 9p, (R,Z)-3-((4-(2-bromoacetamido)-3,5-dimethyl-1H-pyrrol-2-yl)methylene)-N-(1-(4-fluorophenyl)ethyl)-2-oxoindoline-5-carboxamide]
IC50 (bovine GRK2; [2]): 3.6 ± 2 µM

Cc1[nH]c(/C=C2\C(=O)Nc3ccc(C(=O)N[C@H](C)c4ccc(Cl)cc4)cc32)c(C)c1NC(=O)CCl [Compound 9o, (R,Z)-3-((4-(2-chloroacetamido)-3,5-dimethyl-1H-pyrrol-2-yl)methylene)-N-(1-(4-chlorophenyl)ethyl)-2-oxoindoline-5-carboxamide]
IC50 (bovine GRK2; [2]): 0.7 ± 0.2 µM | pH After Assay [1]: 4 | solubility thermodynamic ([1]; thermodynamic from solid): 205 µM and 105 µg/mL

Cc1[nH]c(/C=C2\C(=O)Nc3ccc(C(=O)N[C@H](C)c4ccccc4)cc32)c(C)c1[N+](=O)[O-] [Compound 7a, (R,Z)-3-((3,5-dimethyl-4-nitro-1H-pyrrol-2-yl)methylene)-2-oxo-N-(1-phenylethyl)indoline-5-carboxamide]
IC50 (bovine GRK2; [3]): 7.2 ± 3 µM

Cc1[nH]c(/C=C2\C(=O)Nc3ccc(C(=O)N[C@H](C)c4ccccc4)cc32)c(C)c1NC(=O)/C=C/CN(C)C [Compound 9f, (Z)-3-((4-((E)-4-(dimethylamino)but-2-enamido)-3,5-dimethyl-1H-pyrrol-2-yl)methylene)-2-oxo-N—((R)-1-phenylethyl)indoline-5-carboxamide]
IC50 (bovine GRK2; [3]): 17 ± 10 µM | pH After Assay [1]: 5 | solubility thermodynamic ([1]; thermodynamic from solid): 125 µM and 64 µg/mL

C=CS(=O)(=O)Nc1c(C)[nH]c(/C=C2\C(=O)Nc3ccc(C(=O)N[C@H](C)c4ccccc4)cc32)c1C [Compound 9c, (R,Z)-3-((3,5-dimethyl-4-(vinylsulfonamido)-1H-pyrrol-2-yl)methylene)-2-oxo-N-(1-phenylethyl)indoline-5-carboxamide]
IC50 (bovine GRK2; [3]): 280 ± 110 µM

Cc1[nH]c(/C=C2\C(=O)Nc3ccc(C(=O)N[C@H](C)c4cccc(Cl)c4)cc32)c(C)c1NC(=O)CCl [Compound 9m, (R,Z)-3-((4-(2-chloroacetamido)-3,5-dimethyl-1H-pyrrol-2-yl)methylene)-N-(1-(3-chlorophenyl)ethyl)-2-oxoindoline-5-carboxamide]
IC50 (bovine GRK2; [2]): 19 ± 10 µM | IC50 (PKA; Table 2, μM ± SD): > 250 µM

Cc1[nH]c(/C=C2\C(=O)Nc3ccc(C(=O)N[C@H](C)c4ccccn4)cc32)c(C)c1NC(=O)CCl [Compound 9l, (R,Z)-3-((4-(2-chloroacetamido)-3,5-dimethyl-1H-pyrrol-2-yl)methylene)-2-oxo-N-(1-(pyridin-2-yl)ethyl)indoline-5-carboxamide]
IC50 (bovine GRK2; [2]): 9.6 ± 5 µM | solubility thermodynamic [1]: 262 µM (≈ 125 µg/mL) | pH After Assay [1]: 4

C=CCNC(=O)c1c(C)[nH]c(/C=C2\C(=O)Nc3ccc(C(=O)N[C@H](C)c4ccccc4)cc32)c1C [Compound 5d, (R,Z)-3-((4-(allylcarbamoyl)-3,5-dimethyl-1H-pyrrol-2-yl)methylene)-2-oxo-N-(1-phenylethyl)indoline-5-carboxamide]
IC50 (bovine GRK2; [3]): 22 ± 10 µM | IC50 (PKA; Table 1, μM ± SD): > 250 µM

CCN(CC)CCNC(=O)c1c(C)[nH]c(/C=C2\C(=O)Nc3ccc(C(=O)N[C@H](C)c4ccccc4)cc32)c1C [Compound 5a, (R,Z)-3-((4-((2-(diethylamino)ethyl)carbamoyl)-3,5-dimethyl-1H-pyrrol-2-yl)methylene)-2-oxo-N-(1-phenylethyl)indoline-5-carboxamide]
IC50 (bovine GRK2; [3]): 1.1 ± 0.7 µM | IC50 (PKA; Table 1, μM ± SD): > 250 µM

C=CC(=O)Nc1c(C)[nH]c(/C=C2\C(=O)Nc3ccc(C(=O)N[C@H](C)c4ccccc4)cc32)c1C [Compound 9b, (R,Z)-3-((4-acrylamido-3,5-dimethyl-1H-pyrrol-2-yl)methylene)-2-oxo-N-(1-phenylethyl)indoline-5-carboxamide]
IC50 (bovine GRK2; [3]): 87 ± 30 µM

C=CCCNC(=O)c1c(C)[nH]c(/C=C2\C(=O)Nc3ccc(C(=O)N[C@H](C)c4ccccc4)cc32)c1C [Compound 5f, (R,Z)-3-((4-(but-3-en-1-ylcarbamoyl)-3,5-dimethyl-1H-pyrrol-2-yl)methylene)-2-oxo-N-(1-phenylethyl)indoline-5-carboxamide]
IC50 (bovine GRK2; [3]): 630 ± 200 µM | IC50 (GRK5): 1.9 ± 0.05 µM | GRK2/GRK5 (GRK5; Table 1, ratio of IC50 values): 330

CC1=C(C(=O)Nc2ccc3[nH]ncc3c2)C(c2ccc(F)c(C(=O)NCc3ccccn3)c2)NC(=O)N1 (centres unmarked) [CCG 215022, reference compound]
IC50 (PKA; Table 1, μM ± SD): > 250 µM

CCN(CC)CCNC(=O)c1c(C)[nH]c(/C=C2\C(=O)Nc3ccc(C(=O)N[C@@H](C)c4ccccc4)cc32)c1C [Compound 5b, (S,Z)-3-((4-((2-(diethylamino)ethyl)carbamoyl)-3,5-dimethyl-1H-pyrrol-2-yl)methylene)-2-oxo-N-(1-phenylethyl)indoline-5-carboxamide]
IC50 (bovine GRK2; [3]): 44 ± 18 µM

Cc1[nH]c(/C=C2\C(=O)Nc3ccc(C(=O)N[C@H](C)c4ccncc4)cc32)c(C)c1NC(=O)CCl [Compound 9k, (R,Z)-3-((4-(2-chloroacetamido)-3,5-dimethyl-1H-pyrrol-2-yl)methylene)-2-oxo-N-(1-(pyridin-4-yl)ethyl)indoline-5-carboxamide]
IC50 (bovine GRK2; [2]): 1.7 ± 2 µM | aqueous solubility relative to 9e ([1]; compared to 9e): less than 2 fold

Cc1[nH]c(/C=C2\C(=O)Nc3ccc(C(=O)N[C@H](C)c4ccccc4)cc32)c(C)c1NC(=O)C1CO1 (stereo partly drawn) [Compound 10l, (Z)-3-((3,5-dimethyl-4-(oxirane-2-carboxamido)-1H-pyrrol-2-yl)methylene)-2-oxo-N—((R)-1-phenylethyl)indoline-5-carboxamide]
IC50 (bovine GRK2): > 250 µM

Cc1cccc([C@@H](C)NC(=O)c2ccc3c(c2)/C(=C/c2[nH]c(C)c(NC(=O)CCl)c2C)C(=O)N3)c1 [Compound 9i, (R,Z)-3-((4-(2-chloroacetamido)-3,5-dimethyl-1H-pyrrol-2-yl)methylene)-2-oxo-N-(1-(m-tolyl)ethyl)indoline-5-carboxamide]
IC50 (bovine GRK2; [2]): 11 ± 6 µM | IC50 (PKA; Table 2, μM ± SD): > 250 µM | GRK2/GRK5 (GRK5; Table 2, ratio of IC50 values): 360

Cc1ccc([C@@H](C)NC(=O)c2ccc3c(c2)/C(=C/c2[nH]c(C)c(NC(=O)CCl)c2C)C(=O)N3)cc1 [Compound 9n, (R,Z)-3-((4-(2-chloroacetamido)-3,5-dimethyl-1H-pyrrol-2-yl)methylene)-2-oxo-N-(1-(p-tolyl)ethyl)indoline-5-carboxamide]
IC50 (bovine GRK2; [2]): 2.1 ± 1 µM | pH After Assay [1]: 2.5 | solubility thermodynamic ([1]; thermodynamic from solid): 252 µM and 124 µg/mL | GRK2/GRK5 (GRK5; Table 2, ratio of IC50 values): 3

Cc1[nH]c(/C=C2\C(=O)Nc3ccc(C(=O)N[C@H](C)c4ccccc4)cc32)c(C)c1NC(=O)C(O)CCl (stereo partly drawn) [Compound 9h, (Z)-3-((4-(3-chloro-2-hydroxypropanamido)-3,5-dimethyl-1H-pyrrol-2-yl)methylene)-2-oxo-N—((R)-1-phenylethyl)indoline-5-carboxamide]
IC50 (bovine GRK2; [3]): 6.7 ± 5 µM | IC50 (PKA; Table 1, μM ± SD): > 250 µM

Cc1[nH]c(/C=C2\C(=O)Nc3ccc(C(=O)N[C@H](C)c4ccccc4)cc32)c(C)c1NC(=O)CCl [Compound 9e, (R,Z)-3-((4-(2-chloroacetamido)-3,5-dimethyl-1H-pyrrol-2-yl)methylene)-2-oxo-N-(1-phenylethyl)indoline-5-carboxamide]
IC50 (bovine GRK2; [3]): 350 ± 100 µM | IC50 (PKA; Table 1, μM ± SD): > 250 µM | pH After Assay [1]: 5 | solubility thermodynamic ([1]; thermodynamic from solid): 75.1 µM and 35.7 µg/mL

Fc1ccc([C@@H]2CCNC[C@H]2COc2ccc3c(c2)OCO3)cc1 [paroxetine, reference compound]
IC50 (PKA; Table 1, μM ± SD): 850 ± 400 µM

Cc1[nH]c(/C=C2\C(=O)Nc3ccc(C(=O)N[C@H](C)c4ccccc4)cc32)c(C)c1NC(=O)/C(C#N)=C/C(C)(C)C [Compound 10a, (Z)-3-((4-((E)-2-cyano-4,4-dimethylpent-2-enamido)-3,5-dimethyl-1H-pyrrol-2-yl)methylene)-2-oxo-N—((R)-1-phenylethyl)indoline-5-carboxamide]
IC50 (bovine GRK2; [3]): 120 ± 80 µM

Cc1[nH]c(/C=C2\C(=O)Nc3ccc(C(=O)NC4(c5ccccc5)COC4)cc32)c(C)c1NC(=O)CCl [Compound 9t, (Z)-3-((4-(2-chloroacetamido)-3,5-dimethyl-1H-pyrrol-2-yl)methylene)-2-oxo-N-(3-phenyloxetan-3-yl)indoline-5-carboxamide]
IC50 (bovine GRK2; [2]): 15 ± 7 µM | IC50 (PKA; Table 2, μM ± SD): 69 ± 10 µM
